We go through one compound from patent publication US12497394B2, “Fused-cyclic pyrazolone formamide compound and preparation method therefor, pharmaceutical composition and use thereof” (SHANGHAI INSTITUTE OF MATERIA MEDICA, CHINESE ACADEMY OF …, priority 2018, dated 2025).

What all share (format): biochemical
One assay addresses BLK (Homo sapiens, UniProt P51451). Description: Kinase profile screen: BLK. The settings on record: 50 nM. The text has this: (§1) Experimental Example 2: Study on the Selectivity of the Kinase Profile of the Compound Due to compound's potent inhibitory activity against AXL, we selected one of the compounds, DC621044, to screen 369 kinase profiles in order to investigate the compound's selectivity to the kinase profile.

For assay [1], the target named is T1, receptor tyrosine kinase AXL (Homo sapiens, UniProt P30530).
T1 construct: 50 μL of AXL kinase domain recombinant protein diluted in reaction buffer was added to start the reaction; made in house; host or cells: insect cells (baculovirus expression system)
T1 sequence (P30530 536-807 limits assumed): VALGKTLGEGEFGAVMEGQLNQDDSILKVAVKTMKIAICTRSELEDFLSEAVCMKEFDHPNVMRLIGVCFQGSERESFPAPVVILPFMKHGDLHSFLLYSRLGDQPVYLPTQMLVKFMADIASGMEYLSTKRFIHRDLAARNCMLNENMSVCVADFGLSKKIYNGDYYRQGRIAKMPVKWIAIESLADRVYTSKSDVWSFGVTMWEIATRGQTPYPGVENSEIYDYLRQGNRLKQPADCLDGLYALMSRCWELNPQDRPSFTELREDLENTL
Description: Enzyme activity of receptor tyrosine kinase AXL (ELISA). The method in brief: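 AXL kinase domain recombinant protein reacted with ATP and compound (1% DMSO) in 50 mM HEPES pH 7.4, 50 mM MgCl2, 0.5 mM MnCl2, 0.2 mM Na3VO4, 1 mM DTT, 1 hour at 37° C. Phosphorylation detected by ELISA with HRP anti-mouse secondary, read at 490 nm; IC50 by four-parameter regression.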
On the technique in general: An ELISA detects its analyte on a solid surface through an enzyme-linked reagent.

The target in the next assay is FYN (Homo sapiens, UniProt P06241). Description: Kinase profile screen: FYN. To be noted: 50 nM.
Excerpt: as §1

In the next assay the target is c-Src (Homo sapiens, UniProt P12931). Description: Kinase profile screen: c-Src. To be noted: 50 nM.
Excerpt: as §1

Chain of c-Src (P12931 whole entry, species assumed): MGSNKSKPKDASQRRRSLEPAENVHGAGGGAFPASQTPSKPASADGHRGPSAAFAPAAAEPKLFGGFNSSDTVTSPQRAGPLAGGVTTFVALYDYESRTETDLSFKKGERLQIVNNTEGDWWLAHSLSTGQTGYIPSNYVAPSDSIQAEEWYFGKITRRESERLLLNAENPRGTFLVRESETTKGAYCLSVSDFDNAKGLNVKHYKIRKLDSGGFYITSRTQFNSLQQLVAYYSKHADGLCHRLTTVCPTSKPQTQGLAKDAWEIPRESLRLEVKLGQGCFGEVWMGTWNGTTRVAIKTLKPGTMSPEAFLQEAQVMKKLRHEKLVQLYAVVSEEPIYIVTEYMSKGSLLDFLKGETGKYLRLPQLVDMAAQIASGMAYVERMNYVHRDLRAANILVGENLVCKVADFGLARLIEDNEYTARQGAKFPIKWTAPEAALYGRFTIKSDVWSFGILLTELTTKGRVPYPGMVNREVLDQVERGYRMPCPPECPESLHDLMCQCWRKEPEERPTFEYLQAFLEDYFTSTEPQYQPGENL
Chain of BLK (P51451 whole entry, species assumed): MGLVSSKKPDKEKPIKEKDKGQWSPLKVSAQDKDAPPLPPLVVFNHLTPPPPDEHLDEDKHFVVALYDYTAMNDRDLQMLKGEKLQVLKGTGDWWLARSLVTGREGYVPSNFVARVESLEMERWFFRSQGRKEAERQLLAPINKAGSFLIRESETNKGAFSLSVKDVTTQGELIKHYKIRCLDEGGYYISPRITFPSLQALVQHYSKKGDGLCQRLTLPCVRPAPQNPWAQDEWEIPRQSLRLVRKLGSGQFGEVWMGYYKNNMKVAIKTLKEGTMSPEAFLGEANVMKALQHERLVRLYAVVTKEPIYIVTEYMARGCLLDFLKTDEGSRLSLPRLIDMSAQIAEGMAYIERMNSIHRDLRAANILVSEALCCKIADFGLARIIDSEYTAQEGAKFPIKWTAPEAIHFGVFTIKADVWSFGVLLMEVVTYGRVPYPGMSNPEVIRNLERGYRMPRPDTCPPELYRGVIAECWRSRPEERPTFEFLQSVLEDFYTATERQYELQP
Chain of FYN (P06241 whole entry, species assumed): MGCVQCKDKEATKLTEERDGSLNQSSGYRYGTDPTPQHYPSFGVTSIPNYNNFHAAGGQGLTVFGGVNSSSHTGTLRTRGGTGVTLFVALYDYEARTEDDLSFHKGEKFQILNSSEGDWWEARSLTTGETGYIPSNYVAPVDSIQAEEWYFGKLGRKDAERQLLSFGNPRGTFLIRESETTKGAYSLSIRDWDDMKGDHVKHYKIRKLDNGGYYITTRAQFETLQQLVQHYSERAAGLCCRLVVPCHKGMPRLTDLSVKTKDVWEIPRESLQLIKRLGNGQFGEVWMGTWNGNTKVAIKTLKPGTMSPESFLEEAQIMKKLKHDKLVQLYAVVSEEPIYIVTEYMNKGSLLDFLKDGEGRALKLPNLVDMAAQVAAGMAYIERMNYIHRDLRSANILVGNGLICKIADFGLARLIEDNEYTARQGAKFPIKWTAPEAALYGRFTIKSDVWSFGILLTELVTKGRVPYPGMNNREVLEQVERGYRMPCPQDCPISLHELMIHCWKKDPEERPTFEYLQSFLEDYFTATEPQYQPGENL

As to `COCCOc1cc2ncnc(Oc3ccc(NC(=O)c4c5n(n(-c6ccc(F)cc6)c4=O)CCCC5)cc3F)c2cc1OCCOC` [DC621044, N-(4-((6,7-bis(2-methoxyethoxy)quinazolin-4-yl)oxy)-3-fluorophenyl)-1-(4-fluorophenyl)-2-oxo-1,2,4,5,6,7-hexahydropyrazolo[1,5-a]pyridine-3-formamide], the inhibition at 0.05 µM is 29.5% against BLK (the first time); 29.9% against BLK (the second time); 22.4% at FYN (the first time); 27.7% against FYN (the second time); 20% on c-Src (the first time); 21% at c-Src (the second time). In addition, the half-inhibitory concentration (IC50) (usually the concentration that inhibits the measured activity by half) in assay [1] was 7.6 ± 0.3 nM. In addition, the inhibition at 0.001 µM in assay [1] (1 nM, read-out: AXL activity Inhibitory rate(%)) was 20.7%. Further, the inhibition at 0.01 µM in assay [1] (10 nM, read-out: AXL activity Inhibitory rate(%)) was found to be 61.2%. In assay [1] (100 nM, read-out: AXL activity Inhibitory rate(%)), the inhibition at 0.1 µM came out at 80.7%.
